Experimental data: ChEMBL document CHEMBL1156839, “From anti-fouling to biofilm inhibition: new cytotoxic secondary metabolites from two Indonesian Agelas sponges” (Bioorg Med Chem, 2010)
Values after ≈ are worked out from the molar mass of the structure shown. Counter-ions that a name gives are not always drawn. Active and inactive are the calls of the source. The rule behind the calls is not given here.

Legend:
L5178Y [1] = assay: Growth inhibition of mouse L5178Y cells at […] after 72 hrs by MTT assay relative to untreated control; assay type: functional; parameters: dose or concentration left out as unconfirmed; settings: values are per cent of control
[2] = system: Staphylococcus epidermidis; assay: Antibacterial activity against Staphylococcus epidermidis; assay type: functional
[3] = system: Staphylococcus epidermidis; assay: Growth inhibition of Staphylococcus epidermidis; assay type: functional, organism-based
[4] = system: Staphylococcus epidermidis; assay: Antibacterial activity against Staphylococcus epidermidis assessed as inhibition of biofilm formation after 18 hrs by adherent assay; assay type: functional, organism-based
L5178Y [5] = assay: Cytotoxicity against mouse L5178Y cells after 72 hrs by MTT assay; assay type: functional, cell-based
Amphibalanus improvisus [6] = assay: Antifouling activity against Balanus improvisus […] larvae assessed as inhibition of cyprid larval settlement at 0.1 uM to 100 uM; assay type: functional, organism-based
Amphibalanus improvisus [7] = assay: Toxicity against Balanus improvisus […] larvae assessed as cyprid larval death at 0.1 uM to 100 uM; assay type: ADME, organism-based; settings: in vivo
[8] = Staphylococcus epidermidis, read-out: MIC

Row | MIC [2, 8] [µM] | MIC [2] [µM] | SMILES | growth, % of control (L5178Y [1]) [%] | growth inhibition (GI) [3] | inhibition [4] | IC50 (L5178Y [5]) [µM] | inhibition (Amphibalanus improvisus [6]) | Activity (Amphibalanus improvisus [7])
1 | > 71 |  | Cn1c(C(=O)O)cc(Br)c1Br | 87.8 | inactive | inactive |  |  | 
2 | > 54 |  | Cn1c(C(=O)NCCCC(=O)O)cc(Br)c1Br | 108 | inactive | inactive |  |  | 
3 | > 46 |  | CN1C(=O)NC(CCCNC(=O)c2cc(Br)c(Br)n2C)C1=O (configuration not stated) [MIDPACAMIDE] | 46.7 | inactive | inactive |  |  | 
4 | > 52 |  | Cn1c(C(=O)NCCS(=O)(=O)O)cc(Br)c1Br [MAURITAMIDE D] | 118 | inactive | inactive |  |  | 
5 | > 48 |  | Cn1c(C(=O)N2CCC(O)=C3N=C(N)N=C32)cc(Br)c1Br [AGELANIN A] | 98.9 | inactive | inactive |  |  | 
6 | > 35 |  | CCN1C(=N)NC(=O)C1(CCCNC(=O)c1cc(Br)c(Br)n1C)NCCS(=O)(=O)O (configuration not stated) [MAURITAMIDE C] | 98.6 | inactive | inactive |  |  | 
7 | > 37 |  | Cn1c(C(=O)NCCCC2(NCCS(=O)(=O)O)NC(=N)NC2=O)cc(Br)c1Br (configuration not stated) [MAURITAMIDE B] | 92.5 | inactive | inactive |  |  | 
8 | > 33 |  | CN(C)CCc1ccc(OCCCNC(=O)c2cc(Br)c(Br)[nH]2)c(I)c1 [AGELANESIN D] | -2.3 | inactive | inactive | 13.1 |  | 
9 | > 67 |  | COC(=O)c1cc(Br)c(Br)n1C | 83.4 | inactive | inactive |  |  | 
10 | > 44 |  | CC(=O)C(O)(CCCNC(=O)c1cc(Br)c(Br)n1C)CC(=O)O (configuration not stated) [AGELANIN B] | 92.8 | inactive | inactive |  |  | 
11 | > 42 |  | CN(C)CCc1ccc(OCCCNC(=O)c2cc(Br)c[nH]2)c(Br)c1 [AGELANESIN A] | -0.5 | inactive | inactive | 9.55 |  | 

Further lines, the compound ahead of its results:

Row | SMILES | MIC [2, 8] [µM] | MIC [2] [µM] | growth, % of control (L5178Y [1]) [%] | growth inhibition (GI) [3] | inhibition [4] | IC50 (L5178Y [5]) [µM] | inhibition (Amphibalanus improvisus [6]) | Activity (Amphibalanus improvisus [7])
12 | NC1=N[C@@]23CCCN2C(=O)c2cc(Br)c(Br)n2[C@H]3N1 [DIBROMPHAKELLIN HYDROCHLORIDE] | > 47 |  |  |  |  |  |  | 
13 | CN(C)CCc1ccc(OCCCNC(=O)c2cc(Br)c[nH]2)c(I)c1 [AGELANESIN B] | > 38 |  | 2.3 | inactive | inactive | 9.25 |  | 
14 | NC1=N[C@@]23CCCN2C(=O)c2cc(Br)c(Br)n2[C@H]3N1 |  |  |  | inactive | inactive |  |  | 
15 | NC1=N[C@@]23CCCN2C(=O)c2cc(Br)c(Br)n2[C@]3(O)N1 [DIBROMOHYDROXYPHAKELLIN HYDROCHLORIDE] | > 45 |  | 113 | inactive | inactive |  |  | 
16 | CN(C)CCc1ccc(OCCCNC(=O)c2cc(Br)c(Br)[nH]2)c(Br)c1 [AGELANESIN C] | > 36 |  | 0.8 | inactive | inactive | 16.8 |  | 
17 | C=C1CC[C@@H]2C(C)(C)CCC[C@@]2(C)[C@@H]1CC/C(C)=C/C[n+]1cn(C)c2nc[nH]/c(=N\O)c21.[Cl-] | > 45 |  | 4.2 | inactive | Active | 12.5 | Dose-dependent effect | Toxic
18 | O=C1NCC(O)n2cc(Br)cc21 (configuration not stated) | > 87 |  | 78.5 | inactive | inactive | > 43.2 |  | 
19 | CC1=CCC[C@@H](C)[C@]1(C)CC/C(C)=C/CC/C(C)=C/CS(=O)(=O)CCNC(=N)N [AGELASIDINE C] | 5.9 (≈ 2.5 µg/mL) |  | 37.4 | inactive | inactive |  |  | 
20 | C=C1CC[C@@H]2C(C)(C)CCC[C@@]2(C)[C@@H]1CC/C(C)=C/Cn1c[n+](C)c2ncnc(N)c21.[Cl-] [AGELASINE D] | < 0.0877 |  | 1.9 | inactive | inactive | 4.03 | Dose-dependent effect | Toxic
21 | NC1=N[C@@]23CCCN2C(=O)c2cc(Br)c(Br)n2[C@H]3N1 [DIBROMPHAKELLIN] |  | >51 |  |  |  |  |  | 
